{"source": "patent US20260108641A1", "about": "“PHYTIC ACID-BASED TERNARY COMPLEX BIOMIMETIC NANOMATERIAL, AND PREPARATION METHOD AND USE THEREOF” (THE SECOND HOSPITAL OF TIAN JIN MEDICAL UNIVERSITY, priority 2023, published 2026)", "key": {"[1]": {"test_system": "PC-3 tumor-bearing mouse model", "assay": "In vivo tumor inhibitory effect", "parameters": "species or system mice", "conditions": "day 14 after tail vein injection, controls PBS, CDDP, PA-Mn-BSA", "quoted_text": "A PC-3 tumor-bearing mouse model was constructed. […] Tumor size was measured every other day for 14 consecutive days after injection to observe the tumor growth inhibitory effect in different groups. Tumors were dissected and collected from the mice on day 14 for size observation."}, "[2]": {"assay": "Safety evaluation, blood biochemical analysis", "assay_type": "in vivo, Kunming mice", "conditions": "24 hours after tail vein injection, versus PBS group", "procedure": "Normal Kunming mice were selected, and PBS, CDDP, PA-Mn-BSA and PA-Mn/Pt-BSA were separately injected via the tail vein of the mice. Blood biochemical analysis was performed 24 hours later."}}}
{"smiles": "[NH2][Pt]([NH2])([Cl])[Cl]", "note": "[CDDP, cisplatin]", "values": [{"measurement": "tumor volume of dissected tumors", "setting": "[1]", "result": "smaller tumor volume than the PBS group"}, {"measurement": "level of alanine transaminase (ALT)", "setting": "[2]", "result": "significantly higher"}, {"measurement": "level of aspartate transaminase (AST)", "setting": "[2]", "result": "significantly higher"}, {"measurement": "level of blood urea nitrogen (BUN)", "setting": "[2]", "result": "significantly higher"}, {"measurement": "level of creatinine (CRE)", "setting": "[2]", "result": "significantly higher"}]}
